Reference: the supplement of paper PMC11616607

What was measured:
Assay in all cases: drug sensitivity score (DSS) from 5-point dose-response viability curve (DSS (area-under-curve based score)); higher = more sensitive (stronger growth inhibition or killing); extreme values may be limits of the assay
Conditions in all cases: exposure time: 72 h; concentration range: 5 concentrations over 10,000-fold range
CAOV3 = test system: CAOV3
Outline: (§1)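 Ovarian cancer and normal ovarian cell lines were tested in 384-well plates. Drugs were acoustically dispensed (Echo 550) in DMSO or water at five concentrations spanning a 10,000-fold range, then 1,500 cells per well were added and incubated 3 days at 37°C, 5% CO2. Viability was read by CellTiter-Glo luminescence on a PHERAstar FS. Drug sensitivity score was derived per cell line and drug with Breeze software; higher means more sensitive, zero means no response.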

COV318 = test system: COV318
Outline: as §1

COV362 = test system: COV362
Outline: as §1

HOSE1C = test system: HOSE1C
Outline: as §1

HOSE2C = test system: HOSE2C
Outline: as §1

JHOS2 = test system: JHOS2
Outline: as §1

Kuramochi = test system: Kuramochi
Outline: as §1

OV90 = test system: OV90
Outline: as §1

OVCAR4 = test system: OVCAR4
Outline: as §1

OVCAR5 = test system: OVCAR5
Outline: as §1

OVCAR8 = test system: OVCAR8
Outline: as §1

Ovsaho = test system: Ovsaho
Outline: as §1

## CN1CC[C@H](c2c(O)cc(O)c3c(=O)cc(-c4ccccc4Cl)oc23)[C@H](O)C1 [Alvocidib]
CAOV3
  drug sensitivity score: 14.9
COV318
  drug sensitivity score: 11.5
COV362
  drug sensitivity score: 12.1
HOSE1C
  drug sensitivity score: 18.9
HOSE2C
  drug sensitivity score: 11.9
JHOS2
  drug sensitivity score: 14
Kuramochi
  drug sensitivity score: 16
OV90
  drug sensitivity score: 14.7
OVCAR4
  drug sensitivity score: 13.3
OVCAR5
  drug sensitivity score: 16.7
OVCAR8
  drug sensitivity score: 17.8
Ovsaho
  drug sensitivity score: 15.9

## COc1cccc2c1C(=O)c1c(O)c3c(c(O)c1C2=O)C[C@@](O)(C(=O)CO)C[C@@H]3O[C@H]1C[C@H](N)[C@H](O)[C@H](C)O1 [Doxorubicin]
CAOV3
  drug sensitivity score: 8.6
COV318
  drug sensitivity score: 3.6
COV362
  drug sensitivity score: 2.3
HOSE1C
  drug sensitivity score: 0
HOSE2C
  drug sensitivity score: 0
JHOS2
  drug sensitivity score: 5.9
Kuramochi
  drug sensitivity score: 6.2
OV90
  drug sensitivity score: 6.7
OVCAR4
  drug sensitivity score: 3.5
OVCAR5
  drug sensitivity score: 4.6
OVCAR8
  drug sensitivity score: 8.8
Ovsaho
  drug sensitivity score: 7.6

## S=C(NCc1ccc2c(c1)OCO2)N1CCN(c2ncnc3c2oc2ccccc23)CC1 [Amuvatinib]
CAOV3
  drug sensitivity score: 2.1
COV318
  drug sensitivity score: 0.1
COV362
  drug sensitivity score: 0
HOSE1C
  drug sensitivity score: 0
HOSE2C
  drug sensitivity score: 0
JHOS2
  drug sensitivity score: 0
Kuramochi
  drug sensitivity score: 0.2
OV90
  drug sensitivity score: 3.2
OVCAR4
  drug sensitivity score: 0.9
OVCAR5
  drug sensitivity score: 1.8
OVCAR8
  drug sensitivity score: 7.9
Ovsaho
  drug sensitivity score: 0.1

## Nc1cccc2c1CN(C1CCC(=O)NC1=O)C2=O (stereo not given) [Lenalidomide]
CAOV3
  drug sensitivity score: 0
COV318
  drug sensitivity score: 0
COV362
  drug sensitivity score: 0
HOSE1C
  drug sensitivity score: 0
HOSE2C
  drug sensitivity score: 0
JHOS2
  drug sensitivity score: 0.1
Kuramochi
  drug sensitivity score: 0.2
OV90
  drug sensitivity score: 0
OVCAR4
  drug sensitivity score: 0
OVCAR5
  drug sensitivity score: 0
OVCAR8
  drug sensitivity score: 0
Ovsaho
  drug sensitivity score: 0

## COc1cccc2c1C(=O)c1c(O)c3c(c(O)c1C2=O)C[C@@](O)(C(=O)CO)C[C@@H]3O[C@H]1C[C@H](N)[C@@H](O)[C@H](C)O1 [Epirubicin]
CAOV3
  drug sensitivity score: 9.9
COV318
  drug sensitivity score: 0.7
COV362
  drug sensitivity score: 1
HOSE1C
  drug sensitivity score: 9.6
HOSE2C
  drug sensitivity score: 10.3
JHOS2
  drug sensitivity score: 5.7
Kuramochi
  drug sensitivity score: 4.6
OV90
  drug sensitivity score: 5.7
OVCAR4
  drug sensitivity score: 2.9
OVCAR5
  drug sensitivity score: 5.1
OVCAR8
  drug sensitivity score: 8.9
Ovsaho
  drug sensitivity score: 7.1

## NCC(=O)Nc1ccc(-n2nc(C(F)(F)F)cc2-c2ccc3c(ccc4ccccc43)c2)cc1
CAOV3
  drug sensitivity score: 1
COV318
  drug sensitivity score: 2.8
COV362
  drug sensitivity score: 0
HOSE1C
  drug sensitivity score: 21.7
HOSE2C
  drug sensitivity score: 8.9
JHOS2
  drug sensitivity score: 1.5
Kuramochi
  drug sensitivity score: 1.4
OV90
  drug sensitivity score: 0.1
OVCAR4
  drug sensitivity score: 0
OVCAR5
  drug sensitivity score: 0
OVCAR8
  drug sensitivity score: 2.7
Ovsaho
  drug sensitivity score: 4.9

## O=C(c1ccc(F)c(F)c1Nc1ccc(I)cc1F)N1CC(O)([C@@H]2CCCCN2)C1 [Cobimetinib]
CAOV3
  drug sensitivity score: 8.5
COV318
  drug sensitivity score: 0
COV362
  drug sensitivity score: 3.5
HOSE1C
  drug sensitivity score: 0.9
HOSE2C
  drug sensitivity score: 3
JHOS2
  drug sensitivity score: 4
Kuramochi
  drug sensitivity score: 4.6
OV90
  drug sensitivity score: 25.7
OVCAR4
  drug sensitivity score: 1.4
OVCAR5
  drug sensitivity score: 8.8
OVCAR8
  drug sensitivity score: 2.4
Ovsaho
  drug sensitivity score: 8.9

## COCCNCc1ccc(-c2cc3nccc(Oc4ccc(NC(=S)NC(=O)Cc5ccc(F)cc5)cc4F)c3s2)nc1 [Glesatinib]
CAOV3
  drug sensitivity score: 0
COV318
  drug sensitivity score: 0.1
COV362
  drug sensitivity score: 1.6
HOSE1C
  drug sensitivity score: 2.9
HOSE2C
  drug sensitivity score: 1.9
JHOS2
  drug sensitivity score: 0
Kuramochi
  drug sensitivity score: 0
OV90
  drug sensitivity score: 0
OVCAR4
  drug sensitivity score: 0
OVCAR5
  drug sensitivity score: 1.2
OVCAR8
  drug sensitivity score: 0
Ovsaho
  drug sensitivity score: 0.2

## O=C(Nc1cccc(NC(=O)c2cccc(O)c2O)c1)c1cccc(O)c1O [MST-312]
CAOV3
  drug sensitivity score: 6.7
COV318
  drug sensitivity score: 5.4
COV362
  drug sensitivity score: 5.1
HOSE1C
  drug sensitivity score: 11.9
HOSE2C
  drug sensitivity score: 10.5
JHOS2
  drug sensitivity score: 9.4
Kuramochi
  drug sensitivity score: 5.5
OV90
  drug sensitivity score: 7.6
OVCAR4
  drug sensitivity score: 7.2
OVCAR5
  drug sensitivity score: 5
OVCAR8
  drug sensitivity score: 13.9
Ovsaho
  drug sensitivity score: 9.7

## COC(=O)N[C@@H](C)CNc1nccc(-c2cn(C(C)C)nc2-c2cc(Cl)cc(NS(C)(=O)=O)c2F)n1 [Encorafenib]
CAOV3
  drug sensitivity score: 0.3
COV318
  drug sensitivity score: 0
COV362
  drug sensitivity score: 0
HOSE1C
  drug sensitivity score: 0
HOSE2C
  drug sensitivity score: 0.5
JHOS2
  drug sensitivity score: 0.1
Kuramochi
  drug sensitivity score: 0
OV90
  drug sensitivity score: 5.6
OVCAR4
  drug sensitivity score: 0
OVCAR5
  drug sensitivity score: 0
OVCAR8
  drug sensitivity score: 0
Ovsaho
  drug sensitivity score: 0.1

## CC(C)N(CCCNC(=O)Nc1ccc(C(C)(C)C)cc1)C[C@H]1O[C@@H](n2cc(Br)c3c(N)ncnc32)[C@H](O)[C@@H]1O [SGC0946]
CAOV3
  drug sensitivity score: 0
COV318
  drug sensitivity score: 0
COV362
  drug sensitivity score: 3.4
HOSE1C
  drug sensitivity score: 0
HOSE2C
  drug sensitivity score: 0
JHOS2
  drug sensitivity score: 0
Kuramochi
  drug sensitivity score: 0
OV90
  drug sensitivity score: 2.3
OVCAR4
  drug sensitivity score: 0.1
OVCAR5
  drug sensitivity score: 1.7
OVCAR8
  drug sensitivity score: 0
Ovsaho
  drug sensitivity score: 0.1

## OC[C@H]1O[C@@H](n2cnc3c2N=CNC[C@H]3O)C[C@@H]1O [Pentostatin]
CAOV3
  drug sensitivity score: 0
COV318
  drug sensitivity score: 0
COV362
  drug sensitivity score: 0
HOSE1C
  drug sensitivity score: 0
HOSE2C
  drug sensitivity score: 1.5
JHOS2
  drug sensitivity score: 0
Kuramochi
  drug sensitivity score: 0
OV90
  drug sensitivity score: 0
OVCAR4
  drug sensitivity score: 0
OVCAR5
  drug sensitivity score: 0
OVCAR8
  drug sensitivity score: 0
Ovsaho
  drug sensitivity score: 0

## CN1C(=O)N[C@H](Cc2c[nH]c3c(Cl)cccc23)C1=O [Necrostatin 2]
CAOV3
  drug sensitivity score: 0
COV318
  drug sensitivity score: 0
COV362
  drug sensitivity score: 0
HOSE1C
  drug sensitivity score: 0
HOSE2C
  drug sensitivity score: 0
JHOS2
  drug sensitivity score: 0
Kuramochi
  drug sensitivity score: 0
OV90
  drug sensitivity score: 0
OVCAR4
  drug sensitivity score: 0
OVCAR5
  drug sensitivity score: 0
OVCAR8
  drug sensitivity score: 0
Ovsaho
  drug sensitivity score: 0

## C[C@]12CC[C@H](O)CC1=CC[C@@H]1[C@@H]2CC[C@]2(C)C(c3cccnc3)=CC[C@@H]12 [Abiraterone]
CAOV3
  drug sensitivity score: 0
COV318
  drug sensitivity score: 0
COV362
  drug sensitivity score: 0
HOSE1C
  drug sensitivity score: 0.1
HOSE2C
  drug sensitivity score: 0
JHOS2
  drug sensitivity score: 0
Kuramochi
  drug sensitivity score: 0
OV90
  drug sensitivity score: 0.5
OVCAR4
  drug sensitivity score: 0.3
OVCAR5
  drug sensitivity score: 0
OVCAR8
  drug sensitivity score: 0
Ovsaho
  drug sensitivity score: 0

## COc1cc2c(N3CCN(C(=O)Nc4ccc(OC(C)C)cc4)CC3)ncnc2cc1OCCCN1CCCCC1 [Tandutinib]
CAOV3
  drug sensitivity score: 0
COV318
  drug sensitivity score: 0
COV362
  drug sensitivity score: 0
HOSE1C
  drug sensitivity score: 0
HOSE2C
  drug sensitivity score: 0
JHOS2
  drug sensitivity score: 0
Kuramochi
  drug sensitivity score: 0
OV90
  drug sensitivity score: 0
OVCAR4
  drug sensitivity score: 0
OVCAR5
  drug sensitivity score: 0
OVCAR8
  drug sensitivity score: 0
Ovsaho
  drug sensitivity score: 0
